How the values were obtained:
SARS-CoV-2 [1] = assay: microbe, parasite or virus in culture; format: functional, organism-based, Chlorocebus sabaeus, Vero C1008; conditions: Severe acute respiratory syndrome coronavirus 2, Vero C1008, 48 h
SARS-CoV-2 [2] = assay: microbe, parasite or virus in culture; conditions: Severe acute respiratory syndrome coronavirus 2, Vero C1008, 48 h
in vitro = conditions: chlorocebus sabaeus, Vero E6 (Vero C1008) cells

Row | Structure (SMILES) | IC50 (SARS-CoV-2 [1]; read-out: IC50) [µM] | IC50 (SARS-CoV-2 [1]; read-out: pIC50 (converted)) [µM] | IC50 (SARS-CoV-2 [2]) [µM] | IC50 (SARS-CoV-2 [2]; read-out: pIC50 (converted)) [µM] | CC50 at 48 h (in vitro; CC50) [µM] | CC50 at 48 h (in vitro; pCC50) [µM]
1 | Cc1nc(OCCCCCN2CCCCC2)cc(-c2ccc(F)cc2)n1 [ENECADIN] | 21.9 | 21.9 | 1.74 | 1.74 | – | –
2 | CN1CC(=O)N=C1NC(=O)Nc1cccc(Cl)c1 [FENOBAM ANHYDROUS] | > 25.1 | > 25.1 | > 20 | > 20 | – | –
3 | O=C1OC2(c3ccc(O)cc3Oc3cc(O)ccc32)c2ccccc21 [FLUORESCEIN] | > 0.309 | > 0.309 | – | – | > 20 | > 20
4 | OCCN1CCN(CCCN2c3ccccc3Sc3ccc(C(F)(F)F)cc32)CC1 [FLUPHENAZINE] | – | – | – | – | 7.76 | 7.76
5 | CCC(C)n1ncn(-c2ccc(N3CCN(c4ccc(OCC5COC(Cn6cncn6)(c6ccc(Cl)cc6Cl)O5)cc4)CC3)cc2)c1=O (stereo unspecified) [ITRACONAZOLE] | – | – | > 100 | > 100 | > 100 | > 100
6 | c1cc(OCCCN2CCCCC2)ccc1CN1CCCCC1 [JNJ-5207852] | > 20 | > 20 | > 20 | > 20 | – | –
7 | CCOC(=O)C1=C(C)NC(C)=C(C(=O)OCC)C1c1ccccc1/C=C/C(=O)OC(C)(C)C [LACIDIPINE] | – | – | > 10 | > 10 | 7.24 | 7.24
8 | CN(C)C(=O)C(CCN1CCC(O)(c2ccc(Cl)cc2)CC1)(c1ccccc1)c1ccccc1 [LOPERAMIDE] | – | – | – | – | ~22 | ~21.9
9 | CCOC(=O)O[C@]1(C(=O)OCCl)CC[C@H]2[C@@H]3CCC4=CC(=O)C=C[C@]4(C)[C@H]3[C@@H](O)C[C@@]21C [LOTEPREDNOL ETABONATE] | > 20 | > 20 | – | – | > 20 | > 20
10 | CN(C[C@@H]1COCCO1)S(=O)(=O)Nc1ccc2ccc3ncc(-c4cnn(C)c4)cc3c(=O)c2c1 [MK-2461] | > 20 | > 20 | > 20 | > 20 | – | –
11 | CC(C)C(=O)OC[C@H]1O[C@@H](n2cc/c(=N\O)[nH]c2=O)[C@H](O)[C@@H]1O [MOLNUPIRAVIR] | ~4.56 | ~4.57 | 14.1 | 14.1 | – | –
12 | CCOc1cc2ncc(C#N)c(Nc3ccc(OCc4ccccn4)c(Cl)c3)c2cc1NC(=O)/C=C/CN(C)C [NERATINIB] | > 10 | > 10 | – | – | > 10 | > 10
13 | CC(COc1ccccc1)N(CCCl)Cc1ccccc1 (stereo unspecified) [PHENOXYBENZAMINE] | > 100 | > 100 | 20 | 20 | – | –
14 | CC[C@@H](C(=O)[C@@H](C)[C@@H](O)[C@H](C)[C@@H]1O[C@@H]([C@@H](CC)C(=O)O)CC[C@@H]1C)[C@H]1O[C@]2(C=C[C@@H](O)[C@]3(CC[C@@](C)([C@H]4CC[C@](O)(CC)[C@H](C)O4)O3)O2)[C@H](C)C[C@@H]1C [SALINOMYCIN] | 1.29 | 1.29 | > 20 | > 20 | – | –
15 | Nc1ccn([C@@H]2S[C@H](CO)[C@@H](O)[C@@H]2O)c(=O)n1 [THIARABINE] | ~12.3 | ~12.3 | > 20 | > 20 | – | –
16 | CSc1ccc2c(c1)N(CCC1CCCCN1C)c1ccccc1S2 (stereo unspecified) [THIORIDAZINE] | – | – | – | – | ~6.38 | ~6.31
17 | CCOC(=O)c1c(CSc2ccccc2)n(C)c2cc(Br)c(O)c(CN(C)C)c12 [UMIFENOVIR] | > 100 | > 100 | > 100 | > 100 | – | –
18 | CCC1=C[C@@H]2CN(C1)Cc1c([nH]c3ccccc13)[C@@](C(=O)OC)(c1cc3c(cc1OC)N(C)[C@H]1[C@@](O)(C(=O)OC)[C@H](OC(C)=O)[C@]4(CC)C=CCN5CC[C@]31[C@@H]54)C2 [VINORELBINE] | > 20 | > 20 | – | – | 14.5 | 14.5

Reference: ChEMBL document CHEMBL4651402, “Screening of ~5500 FDA-approved drugs and clinical candidates for anti-SARS-CoV-2 activity” (2021)
